Source: publication PMC11667234, “CD63 as novel target for nanoemulsion-based ^19F MRI imaging and drug delivery to activated cardiac fibroblasts” (Theranostics, 2025)
“Also recorded” adds a separate entry of the source.

Key:
mouse EpiSC = assay: Peptide binding by flow cytometry (6-FAM fluorescence); assay type: cell-based; conditions: EpiSC from hearts 5 days after MI, 5 µg peptide, 30 min, 37°C, 6-FAM MFI, n = 3 hearts
Experimental: (§1) To study the in vitro binding of 6-FAM-conjugated peptides (see above) we used the following cells: mouse EpiSC and cardiac fibroblasts prepared as described above, normal human dermal fibroblasts (NHDF) from juvenile foreskin, and human monocytes (THP-1). In addition, we used primary human cardiac fibroblasts which were prepared by outgrowth culture technique from a heart sample of a patient with terminal heart failure undergoing orthotopic heart transplant surgery, kindly provided by the Cardiac Surgery Department of the University Hospital Düsseldorf, Düsseldorf, Germany. A tissue sample weighing about ~5 g was removed from the failing heart's apex and placed in cooled BIOPS buffer to be divided into tiny pieces for subsequent culture to allow cell outgrowth in a 6‑well plate with DMEM (low glucose), 20% FBS, and 1% penicillin-streptomycin. The medium was replaced every 2 days and biopsy pieces were discarded after 5 days. After 14 days, cells reached a confluence of about 80% and were then passed to T75 cell culture flasks.
(§2) The binding assay was performed as follows: Cells were detached with PBS-EDTA (5 mM) for 10 min at 37°C and centrifuged at 500 × g for 5 min. Afterwards, 5 µg of synthesized peptide (see above) was added to 800 µL (0.5 x 10^6 cells) of the cell suspension and incubated for 30 min at 37°C. To control the specific targeting of the EP9 peptide, scrambled and mutated peptides were used as negative controls. Subsequently, 200 µL of the cell suspension were washed in 2 mL MACS buffer (2 % FBS and 1 mM EDTA in PBS) and centrifuged at 500 × g for 5 min and the supernatant was discarded. One additional washing step was performed by resuspending the cell pellet in 200 µL of MACS buffer and centrifugation at 500 × g for 5 min. After discarding the supernatant, the cell pellet was resuspended in 200 µL of 4′6-diamidino-2-phenylindole dichlorhydrate (DAPI) (Merck, Darmstadt, Germany) (1 µg/mL) to allow discrimination of dead cells. Flow cytometric analysis was performed using a BD FACS Canto II flow cytometer (BD Biosciences, Franklin Lakes, NJ, USA).

[1] = tested on: primary human cardiac fibroblasts; assay: as above; assay type: cell-based; conditions: outgrowth culture, patient with terminal heart failure, 30 min, 37°C, 6-FAM MFI, n = 2 replicates
Experimental: as §1, §2

human monocytes (THP1) = assay: as above; assay type: cell-based; conditions: 30 min, 37°C, 6-FAM MFI, n = 3 replicates
Experimental: as §1, §2

[2] = tested on: rat epicardial stromal cells (EpiSC); conditions: cultured EpiSC from infarcted rat hearts; cited from earlier work
Text: Using bacterial phage display screening, our previous work identified five small peptides that bound to cultured EpiSC, isolated from infarcted rat hearts, with high affinity. […] In the present study, we first aimed to assess the potential of EP9 for in vivo imaging of epicardial and myocardial stromal cells (fibroblasts) in the post-MI mouse heart. To this end, we coupled EP9 to a ^19F-containing PFC-NE (EP9-PFC-NE), designed for the in vivo labeling of cardiac cells (Figure 1). At 5 days post-MI (50 min ischemia/reperfusion), 150 µL of EP9-PFC-NE were injected into the tail vein of infarcted mice. PFC-NE coupl ... || page 3: Figure S2. Binding of peptide EP9 in comparison to control peptides to mouse cardiac fibroblasts and human monocytes (THP1). The binding of peptide EP9 in comparison to EP9-derived scrambled and mutated (MUT) peptides (see Table S1), as well as a negative control peptide (Negative) with low affinity to cardiac stromal cells (as previously assessed: peptide EP50), was evaluated by flow cytometry after 30 min of incubation in vitro. 6-FAM fluorescence signal of the peptides at the surface of mouse cardiac fibroblasts isolated from hearts 5 days after MI (n = 3 hearts) and human mono ...

For “Ac-KLMLPRPGGGKC-NH2 [EP9, 7-amino acid peptide KLMLPRP with glycine spacer GGGK(FAM)C, from phage display on rat EpiSC]”, the “binding to cultured mouse EpiSC” value (mouse EpiSC) was “superior binding”, the “binding to primary human cardiac fibroblasts” value [1] was “high binding” and the “binding to human monocytes (THP1)” value (human monocytes (THP1)) was “no discernible binding; also recorded: only negligible binding”. The “binding affinity to rat EpiSC” value [2] was “high binding affinity; also recorded: highest affinity and specificity”.
